Two substances from patent US6867186B2, “Cell-permeable protein inhibitors of calpain” (New England Medical Center Hospital, priority 1997, dated 2005) can be followed below.

The test system of one test is U1 cells. Kind of test: U1 cell viability (Trypan-blue exclusion). The format is cell-based, human. The settings on record: 5 μM calpastat, 96 hr; from 40% without. On the procedure: (§1) U1 is a human promonocytic cell line that is chronically infected with HIV-1 and that constitutively expresses low levels of HIV-1. […] In the present experiment, 1×10^6 cells/ml were treated with various dosages of calpastat and incubated for one hour at 37° C. After incubation, various concentrations of Tpg were added to the calpastat-treated cells and aliquoted into a 24-well plate. To observe the stimulation of HIV-1 activity by Tpg, equivalent numbers of cells were treated with Tpg alone. The cells were then incubated at 37° C. for up to four days, and supernatants from the cell culture were collected each day to measure HIV-1 activity. The viability of cells treated with both Tpg and calpastat were determined each day by Trypan-blue exclusion test. The HIV-1 activity in the collected supernatants was determined by measuring the HIV-1 p24 core antigen protein by ELISA (Dupont Medical Products, Boston, Mass.) according to the manufacturer's instructions.
In another series of experiments, U1 cells, which are latently infected with HIV-1 provirus, were plated at 10^6 cells/well in 1 ml of medium and treated with varying concentrations of either calpastat (FIG. 7E) or calpeptin (benzyloxycarbonyl-leucyl-norleucinal) (FIG. 7F) for 45 minutes before addition of thapsigargin (4 nM final concentration). The viability of U1 monocytes was 90% at 48 hours of thapsigargin (4 nM) treatment, in the presence or absence of calpain inhibitors. After 48 hours of stimulation, HIV-1 p24 antigen levels were determined in 200 μl of tissue culture supernatant, using a p24 ELISA (DuPont). All assays were performed on triplicate cultures. Mean values and standard deviations are shown for each concentration of inhibitor (FIGS. 7E-7F).

Test [1] concerns red blood cells isolated from sickle cell patients. Kind of test: Na2S2O5-induced sickling of sickle erythrocytes. The class given is cell-based, human. On the procedure:
To examine sickling, a wet preparation of red blood cells (as opposed to a dried smear) was made by placing blood under a coverslip on a glass slide. The slide was placed under a light microscope, and the number of cells displaying sickled morphology was counted. Na2S2O5 was used to increase the rate of sickling.
When EDTA-anticoagulated peripheral blood from a sickle cell patient was preincubated with calpastat for 10 minutes prior to exposure to sodium metabisulfite (Na2S2O5), there was a significant delay (about 30 minutes) in sickling.
In a second experiment, the effect of calpastat on recovery from sickling was measured. Blood from the same patient was incubated with Na2S2O5, for two hours in a microfuge tube. The supernatant plasma was then removed from the settled erythrocytes and the erythrocytes were diluted in four volumes of saline. The washed erythrocytes were then incubated in saline, and Wright-Giemsa stained smears were made 60 minutes following the washout of Na2S2O5.

Another test deals with U937 cells. In words: Chemokine production of thapsigargin-stimulated U937 cells. The class given is cell-based. To be noted: 5 nM calpastat. On the procedure: peptides can inhibit chemokine production in vitro. The effect of […] on chemokine production was tested as follows. […] The chemokines (MIP-1α, MIP-1P and RANTES) in the supernatants of U937 cells were assayed using QuantikineTM kits and as described by R&D Systems (Minneapolis, Minn.). […] Thus, […] be used to reduce production of inflammatory cytokines and treat inflammatory disorders.

A further test has as its system gel filtered platelets. In words: Thrombin-induced platelet aggregation (aggregometer). The format is cell-based, human. To be noted: for effect on platelet aggregation: thrombin or SFLLR induced. On the procedure:
In one series of experiments, platelets were purified from […] on a SEPHAROSE 2B column in PIPES buffered saline containing glucose, pre-incubated with 45 μM calpastat or S-TIPPEY-ala for 30 minutes at 37° C., and placed in a cuvette in a BIODATA aggregometer. The aggregometer measures turbidity of the solution by nephlometry (light scatter). Aggregation was induced with thrombin (0.1 to 1 unit/ml) or the thrombin receptor agonist peptide SFLLR (SEQ ID NO:5). […] In contrast, S-TIPPEY-ala had no activity. A version of S-TIPPEYIN lacking the signal sequence similarly had no activity.
In another series of experiments, gel filtered platelets were obtained and tested as follows. Blood from healthy, aspirin-free volunteers was collected by venipuncture into 4% sodium citrate (9:1 v/v, final concentration 0.4%) and centrifuged at 200×g for 20 minutes to obtain platelet rich plasma (PRP). Following incubation with apyrase (4 units/ml for 5 minutes at room temperature), platelets were purified from PRP by gel-filtration at room temperature using a Sepharose 2B column equilibrated in PIPES buffer (25 mM PIPES pH 6.8, 140 mM NaCl, 4 mM KCl, and 0.1% glucose) (Hsu-Lin, et al., J. Biol. Chem. 259:9121-9126, 1984). Final gel filtered platelet concentrations were about 1.5×10^8 cells/ml.
Gel filtered platelets (250 μl aliquots at 1.6×10^8/ml) were incubated with the indicated concentration of calpastat or mutant calpastat-ala for either 20 or 30 minutes at 37° C. in the absence of calcium and stirring. To test peptidyl calpain inhibitors, platelets were preincubated with the indicated concentration of calpeptin, MDL, E64d, DMSO (vehicle control) or NH4Cl (cathepsin control) for 10 minutes at 37° C. Following incubation, platelets were recalcified (CaCl2, 2 mM) and stimulated with 0.05-1.0 unit/ml thrombin, while being stirred (1400 rpm) at 37° C. The sensitivity of platelet preparations to thrombin decreased over the course of a given experiment. The thrombin concentration used was to elicit robust aggregation and varied between 0.05 and 1.0 U/ml. Aggregation was measured using a Bio-Data lumi-aggregometer. Percent inhibition of aggregation was measured at 4 minutes following the onset of aggregation. The initial rate of aggregation during the first 15 seconds for treated vs. untreated samples was used to calculate the IC50 for each inhibitor.

The next test relates to HIV-1. On the procedure: as §1
In another series of experiments, U1 cells, which are latently infected with HIV-1 provirus, were plated at 10^6 cells/well in 1 ml of medium and treated with varying concentrations of either calpastat (FIG. 7E) or calpeptin (benzyloxycarbonyl-leucyl-norleucinal) (FIG. 7F) for 45 minutes before addition of thapsigargin (4 nM final concentration). […] After 48 hours of stimulation, HIV-1 p24 antigen levels were determined in 200 μl of tissue culture supernatant, using a p24 ELISA (DuPont). All assays were performed on triplicate cultures.

Where [2] appears, read: sixty minutes following Na2S2O5 washout.

Where two headings read alike, the source gives them in different places.

“H-AAVALLPAVLLALLAPEKLGERDDTIPPEYRELLEKKTGV-OH [Calpastat]”: in the test with U1 cells, the “viability of U1 cells in 4 nM Tpg” value worked out at 90%. In addition, the “final percentage of sickled cells” value in test [1] (Na2S2O5) is reported as “no detectable difference”. Moreover, in test [1] (preincubated 10 minutes prior to Na2S2O5), the delay in sickling result is “about 30 minutes”. For the same substance, the “percentage of discocytes compared to S-TIPPEY-ala-treated cells” value in test [1] (setting [2]) is “two-fold greater”. In test [1] (setting [2]), the “percentage of sickled cells compared to S-TIPPEY-ala-treated cells” value is given as “two-fold lower”. Further, the “reduction of production of chemokines (MIP-1α, MIP-1P and RANTES)” value in the test on U937 cells is recorded as “about one third”. For the same substance, the “concentration of maximal inhibition of platelet aggregation” value in the test on gel filtered platelets (30 minutes pre-incubation at 37° C.) stood at 45 µM. The IC50 with gel filtered platelets (no unit printed, read-out: IC50 of calpastat, initial rate of thrombin-induced aggregation) amounted to 50 µM; in the test with HIV-1 (read-out: IC50, inhibition of HIV-1 replication, FIG. 7E, U1 cells, thapsigargin 4 nM, 48 hours) it was 0.05 µM. Besides, the “effect on platelet aggregation” value in the test with gel filtered platelets was “inhibited platelet aggregation and secretion”. Besides, the “decrease of mean fold viral production” value is on record as 47% in the test on HIV-1 (5 μM, 24 hours of Tpg stimulation); 44% in the test with HIV-1 (5 μM, 46 hours of Tpg stimulation); 55% in the test with HIV-1 (5 μM, 72 hours of Tpg stimulation); 61% with HIV-1 (5 μM, 96 hours of Tpg stimulation). Further, the “inhibition of HIV-1 release from infected cells” value in the test with HIV-1 (5 μM, overall) is recorded as “about 50%”.

For the substance “AAVALLPAVLLALLAPEKLAERADAAAPEAAELLEKKTGV [Calpastat-ala]”, the concentration for half-maximal inhibition (IC50) in the test on gel filtered platelets (initial rate during first 15 seconds, NI=no inhibition, peptidyl inhibitors 10 min pre-incubation, read-out: IC50, initial rate of thrombin-induced platelet aggregation) was more than 50 µM. Further, the “effect on platelet aggregation” value is reported as “no measurable effect” in the test on gel filtered platelets and “no activity” in the test on gel filtered platelets (listed as S-TIPPEY-ala).
